Test results from US3937830A, “5-Pivaloyloxy-5-(1-phenylethyl) barbituric acid, analgetic composition and method based thereon” (The Kendall Company, priority 1974, dated 1976).
Like-named read-outs stand apart in the source and are kept apart here.

Assays:
[1] = Acute oral toxicity in mice; parameters: species or system adult albino male mice (Charles River strain); conditions: mouse, in vivo, 95% limits in parentheses
Procedure: (§1) All tests were conducted on adult albino male mice (Charles River strain); the dosage consisted of the active agent suspended in 10% aqueous acacia and was administered orally and/or subcutaneously as indicated.
(§2) Acute oral toxicity was determined in the conventional manner. The results were expressed as LD50, the dose required to produce death in 50% of the animals treated, determined graphically, with the 95% limits shown in parentheses.

[2] = Hot-plate analgetic activity (Eddy and Leimbach, modified); type: in vivo, adult albino male mice (Charles River strain); conditions: for ED50: Mus musculus, mice
Procedure: as §1
Two established procedures were employed to determine analgetic activity. The method described by Eddy, N. B., and Leimbach, D., J. Pharmacol. Exptl. Therap. 107, 385 (1953) was followed, with the following modifications, in the first procedure. Mice are pretested by placing them individually on the cleaned surface of a copper water bath, the temperature of which is maintained at 54°-55°C. The reaction time of this noxious thermal stimulus is the time in seconds required for either licking of the paws or jumping, such that all four paws leave the surface of the plate. The drug is then administered orally or subcutaneously, generally at five dosage levels, (10 mice per dosage level) and the reaction times are redetermined at intervals of 1/2 hour, 1 hour, and 2 hours; the time of peak activity is the time at which the greatest number of animals is protected. From the pretreatment reaction times the mean and standard deviations are computed. The cut-off time is taken to be the mean reaction time plus 2 standard deviation units. Reaction times equal to or exceeding this cut-off time are considered to represent analgetic responses. The dosage required to produce an analgetic response in 50% of the animals (ED50 and 95% limits) is computed graphically.

[3] = Phenyl-p-quinone writhing (Siegmund); type: in vivo, adult albino male mice (Charles River strain); conditions: oral, mice, not dose-related
Procedure: as §1
In the second procedure, the method of Siegmund, E., et al. reported in Proc. Soc. Exptl. Biol. and Med. 95, 729, (1957) was generally followed. The method is based on the antagonism by both non-narcotic and narcotic analgetics of a syndrome induced in mice following intraperitoneal injection of phenyl-p-quinone. The syndrome is characterized by intermittent contractions of the abdomen, twisting and turning of the trunk, and extension of the hind legs, beginning 3 to 10 minutes after the injection and persisting for more than one hour. The test drug is administered orally at four to five dosage levels. At the time of peak activity, 0.25 ml. of a 0.02 per cent solution of phenyl-p-quinone in 5 per cent (aqueous) ethyl alcohol is injected intraperitoneally. Inhibition of the syndrome is considered an analgetic response.

[4] = Therapeutic index (LD50 divided by ED50); parameters: species or system adult albino male mice (Charles River strain); conditions: mouse, in vivo; oral LD50 / oral hot-plate ED50, mice
Procedure: By therapeutic index is meant the LD50 of a compound divided by its ED50, or the dose required to kill one-half of the test animals divided by the dose required to produce the desired therapeutic effect in one-half of the test animals. It will be apparent that the larger the therapeutic index, the greater the margin of safety and the more desirable the drug.
as §1, §2
Two established procedures were employed to determine analgetic activity. The method described by Eddy, N. B., and Leimbach, D., J. Pharmacol. Exptl. Therap. 107, 385 (1953) was followed, with the following modifications, in the first procedure. Mice are pretested by placing them individually on the cleaned surface of a copper water bath, the temperature of which is maintained at 54°-55°C. The reaction time of this noxious thermal stimulus is the time in seconds required for either licking of the paws or jumping, such that all four paws leave the surface of the plate. […]

CC(c1ccccc1)C1(OC(=O)C(C)(C)C)C(=O)NC(=O)NC1=O (centres unmarked) [5-pivaloyloxy-5-(1-phenylethyl) barbituric acid]
LD50 [1]: 690 mg/kg | ED50 ([2]; sc, subcutaneous, not dose-related, read-out: Hot-Plate ED50 (subcutaneous)): 40 to 80 mg/kg | ED50 ([2]; oral, read-out: Hot-Plate ED50 (oral)): < 3.1 mg/kg | Time of Peak Activity ([2]; time at which the greatest number of animals is protected): 1/2 | Phenyl-p-quinone Writhing, % active ([3]; 100 mg/kg): 26% | Phenyl-p-quinone Writhing, % active ([3]; 200 mg/kg): 30% | Phenyl-p-quinone Writhing, % active ([3]; 400 mg/kg): 10% | selectivity ratio [4]: > 230
